Test results published in US10738028B2, “Spiro three-membered ring, spiro five-membered ring peptide deformylase inhibitor and use thereof in antibacteria and anti-tumor” (priority 2016, dated 2020).

How the values were obtained:
Format in all cases: cell-based
[1] = system: Enterococcus faecium (EFM); test: MIC, two-fold agar dilution (CLSI), clinical isolates
Summary of the method: (§1)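 CLSI two-fold agar dilution; MIC of test samples read per tested strain.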

[2] = system: methicillin-sensitive Staphylococcus epidermidis (MSSE); test: as above
Summary of the method: as §1

[3] = system: methicillin-sensitive Staphylococcus aureus (MSSA); test: as above
Summary of the method: as §1

[4] = system: methicillin-resistant Staphylococcus epidermidis (MRSE); test: as above
Summary of the method: as §1

[5] = system: Moraxella catarrhalis (BCA); test: as above
Summary of the method: as §1

[6] = system: methicillin-resistant Staphylococcus aureus (MRSA); test: as above
Summary of the method: as §1

[7] = system: Streptococcus pneoumoniae (SPN); test: as above
Summary of the method: as §1

[8] = system: Enterococcus faecalis (EFA); test: as above
Summary of the method: as §1

[9] = system: Escherichia coli (including ESBLs, non-ESBLs); test: as above
Summary of the method: as §1

[10] = system: A549 lung cancer cell line; test: CCK-8 proliferation inhibition; details: concentration of 30 μM
Summary of the method: (§2)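 Plating at 2000 cells/well, then incubation overnight at 37° C. Next, a range of compound concentrations for 72 hours (control 1‰ DMSO). Finally, medium decanted and CCK-8 diluted 1:10 added.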

[11] = system: BEL-7402 liver cancer cell line; test: CCK-8 proliferation inhibition; details: concentration of 30 μM
Summary of the method: as §2

[12] = system: MGC-803 gastric cancer cell line; test: CCK-8 proliferation inhibition; details: Homo sapiens, MGC-803, 72 h, concentration of 30 μM
Summary of the method: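 Growth inhibition measured by CCK-8 read-out after 72 h continuous compound treatment, 1‰ DMSO vehicle as control. Cells plated 2000/well the night before at 37 °C, 5% CO2; medium was 1640 for Jurkat and MGC-803, F12 for PC3, DMEM high glucose for MCF-7, each with 10% newborn bovine serum.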

[13] = system: HCT-116 colorectal cancer cell line; test: CCK-8 proliferation inhibition; details: concentration of 30 μM, 72 hours, CCK-8
Summary of the method: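 Viability read-out: 1:10 diluted CCK-8 after 72 h compound exposure at 37 °C, 5% CO2. Cells (2000/well, McCoy's 5A plus 10% newborn bovine serum) pre-cultured overnight; vehicle control 1‰ DMSO.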

CCCC[C@H](CC(=O)NO)C(=O)N1CC2(CC2)C[C@H]1C(=O)Nc1ccc(F)cn1 [Example 46, (S)—N-(5-fluoropyridin-2-yl)-5-((R)-2-(2-(hydroxyamino)-2-oxoethyl)hexanoyl)-5-spiro[2.4]heptane-6-carboxamide]
Anti-bacterial activity (MIC), strain EFM 15-1 ([1]; clinical isolate EFM 15-1): > 32 µg/mL
Anti-bacterial activity (MIC), strain EFM 15-2 ([1]; clinical isolate EFM 15-2): > 32 µg/mL
Anti-bacterial activity (MIC), strain EFM 15-3 ([1]; clinical isolate EFM 15-3): > 32 µg/mL
Anti-bacterial activity (MIC), strain EFM 15-4 ([1]; clinical isolate EFM 15-4): > 32 µg/mL
Anti-bacterial activity (MIC), strain EFM 15-5 ([1]; clinical isolate EFM 15-5): 0.5 µg/mL
Anti-bacterial activity (MIC), strain EFM 15-6 ([1]; clinical isolate EFM 15-6): 1 µg/mL
Anti-bacterial activity (MIC), strain MSSE 15-3 ([2]; clinical isolate MSSE 15-3): 1 µg/mL
Anti-bacterial activity (MIC), strain MSSE 15-4 ([2]; clinical isolate MSSE 15-4): 1 µg/mL
Anti-bacterial activity (MIC), strain MSSE 15-5 ([2]; clinical isolate MSSE 15-5): 1 µg/mL
Anti-bacterial activity (MIC), strain MSSE 15-6 ([2]; clinical isolate MSSE 15-6): 1 µg/mL
Anti-bacterial activity (MIC), strain MSSA 15-3 ([3]; clinical isolate MSSA 15-3): 0.25 µg/mL
Anti-bacterial activity (MIC), strain MSSA 15-4 ([3]; clinical isolate MSSA 15-4): 1 µg/mL
Anti-bacterial activity (MIC), strain MSSA 15-5 ([3]; clinical isolate MSSA 15-5): 1 µg/mL
Anti-bacterial activity (MIC), strain MSSA 15-6 ([3]; clinical isolate MSSA 15-6): > 32 µg/mL
Anti-bacterial activity (MIC), strain MRSE 15-1 ([4]; clinical isolate MRSE 15-1): 1 µg/mL
Anti-bacterial activity (MIC), strain MRSE 15-2 ([4]; clinical isolate MRSE 15-2): 1 µg/mL
Anti-bacterial activity (MIC), strain MRSE 15-3 ([4]; clinical isolate MRSE 15-3): 1 µg/mL
Anti-bacterial activity (MIC), strain MRSE 15-7 ([4]; clinical isolate MRSE 15-7): 1 µg/mL
Anti-bacterial activity (MIC), strain BCA 14-1 ([5]; clinical isolate BCA 14-1): 1 µg/mL
Anti-bacterial activity (MIC), strain BCA 14-4 ([5]; clinical isolate BCA 14-4): 1 µg/mL
Anti-bacterial activity (MIC), strain BCA 14-5 ([5]; clinical isolate BCA 14-5): 0.5 µg/mL
Anti-bacterial activity (MIC), strain BCA 14-6 ([5]; clinical isolate BCA 14-6): 0.5 µg/mL
Anti-bacterial activity (MIC), strain BCA 14-7 ([5]; clinical isolate BCA 14-7): 1 µg/mL
Anti-bacterial activity (MIC), strain BCA 14-8 ([5]; clinical isolate BCA 14-8): 1 µg/mL
Anti-bacterial activity (MIC), strain BCA 14-10 ([5]; clinical isolate BCA 14-10): 0.5 µg/mL
Anti-bacterial activity (MIC), strain MRSA 15-1 ([6]; clinical isolate MRSA 15-1): 0.25 µg/mL
Anti-bacterial activity (MIC), strain MRSA 15-2 ([6]; clinical isolate MRSA 15-2): 1 µg/mL
Anti-bacterial activity (MIC), strain MRSA 15-3 ([6]; clinical isolate MRSA 15-3): 1 µg/mL
Anti-bacterial activity (MIC), strain MRSA 15-4 ([6]; clinical isolate MRSA 15-4): 1 µg/mL
Anti-bacterial activity (MIC), strain SPN 16-2 ([7]; clinical isolate SPN 16-2): 0.5 µg/mL
Anti-bacterial activity (MIC), strain SPN 16-4 ([7]; clinical isolate SPN 16-4): 0.5 µg/mL
Anti-bacterial activity (MIC), strain EFA 15-1 ([8]; clinical isolate EFA 15-1): > 32 µg/mL
Anti-bacterial activity (MIC), strain EFA 15-2 ([8]; clinical isolate EFA 15-2): > 32 µg/mL
Anti-bacterial activity (MIC), strain EFA 15-3 ([8]; clinical isolate EFA 15-3): > 32 µg/mL
Anti-bacterial activity (MIC), strain EFA 15-4 ([8]; clinical isolate EFA 15-4): > 32 µg/mL
Anti-bacterial activity (MIC), strain EFA 15-5 ([8]; clinical isolate EFA 15-5): > 32 µg/mL
Anti-bacterial activity (MIC), strain EFA 15-6 ([8]; clinical isolate EFA 15-6): > 32 µg/mL
Anti-bacterial activity (MIC), strain EFA 15-9 ([8]; clinical isolate EFA 15-9): 4 µg/mL
Anti-bacterial activity (MIC), strain ECO+ 15-1 ([9]; clinical isolate ECO+ 15-1): 32 µg/mL
Anti-bacterial activity (MIC), strain ECO+ 15-2 ([9]; clinical isolate ECO+ 15-2): > 32 µg/mL
Anti-bacterial activity (MIC), strain ECO+ 15-3 ([9]; clinical isolate ECO+ 15-3): > 32 µg/mL
Anti-bacterial activity (MIC), strain ECO+ 15-4 ([9]; clinical isolate ECO+ 15-4): 1 µg/mL
Anti-bacterial activity (MIC), strain ECO− 15-1 ([9]; clinical isolate ECO− 15-1): > 32 µg/mL
Anti-bacterial activity (MIC), strain ECO− 15-2 ([9]; clinical isolate ECO− 15-2): > 32 µg/mL
Anti-bacterial activity (MIC), strain ECO− 15-3 ([9]; clinical isolate ECO− 15-3): > 32 µg/mL
Anti-bacterial activity (MIC), strain ECO− 15-4 ([9]; clinical isolate ECO− 15-4): > 32 µg/mL
inhibition at 30 µM ([10]; Homo sapiens, A549, 72 h): > 50%
Inhibition of proliferation, Lung cancer A549 ([10]; 72 hours, 30 µM): 60%
inhibition at 30 µM ([11]; Homo sapiens, Bel-7402, 72 h): > 50%
Inhibition of proliferation, Liver cancer BEL-7402 ([11]; 72 hours, 30 µM): 70%
inhibition at 30 µM [12]: 48%
inhibition at 30 µM ([13]; Homo sapiens, HCT-116, 72 h, read-out: HCT116 inhibition rate/%): > 50%
HCT116 inhibition rate/% ([13]; 30 µM): 58%
